Structures can show the parent of a compound that is named as a salt.
Legend:
Human GnRH receptor = biological target: T1, Human GnRH receptor (Homo sapiens, UniProt P30968); assay: Human GnRH receptor binding inhibition assay (125I-leuprolerin, membrane fraction of CHO cells expressing human GnRH receptors); details: CHO cell membrane fraction with human GnRH receptors, 25° C., 60 minutes, concentration series, Hill plot, read-out: Binding inhibitory activity (IC50)
T1 construct: expressed in transfected cells; host or cells: CHO (Chinese hamster ovary) cells, membrane fraction
T1 sequence (P30968 1-328): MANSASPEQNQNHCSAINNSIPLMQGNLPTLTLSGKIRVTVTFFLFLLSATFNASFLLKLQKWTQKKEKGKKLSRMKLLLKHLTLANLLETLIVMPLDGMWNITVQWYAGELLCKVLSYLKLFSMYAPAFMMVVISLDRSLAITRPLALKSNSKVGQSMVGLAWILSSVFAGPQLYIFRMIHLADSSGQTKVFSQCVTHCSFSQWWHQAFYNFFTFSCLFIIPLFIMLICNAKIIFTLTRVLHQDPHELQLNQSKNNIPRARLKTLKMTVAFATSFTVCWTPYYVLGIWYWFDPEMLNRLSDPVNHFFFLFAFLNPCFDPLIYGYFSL
Experimental: Human GnRH receptor binding inhibition assay
(A) Preparation of ^125 I-leuprolerin
Ten (10) μl of 3×10^-4 M aqueous leuprolerin solution and 10 μl of 0.01 mg/ml lactoperoxidase solution were taken in a tube, and 10 μl of Na^125 I solution (37 MBq) was added. After stirring, 10 μl of 0.001% H2 O2 was added and the reaction was conducted at room temperature for 20 minutes. The reaction was stopped by adding 700 μl of 0.05% TFA solution, and the reaction mixture was purified by reversed HPLC. The HPLC parameters are shown below. The retention time of ^125 I-leuprolerin was 26-27 minutes.
Column: TSKgel ODS-80™ CTR (4.6 mm×10 cm)
Eluent: Solvent A (0.05%TFA) Solvent B (40%CH3 CN-0.05%TFA)
Min. 0 (100% Solvent A)--Min. 3 (100% Solvent A)--Min. 7 (50% Solvent A+50% Solvent B)--Min. 40 (100% Solvent B) Elution temperature: room temperature Elution flow rate: 1 ml/min.
CHO cells (10^9 cells) with human GnRH receptors expressed were floated on phosphate-buffered saline containing EDTA (PBS-EDTA) and centrifuged at 100×g for 5 minutes. To the pellet obtained was added 10 ml of a cell homogenate buffer (10 mM NaHCO3, 5 mM EDTA, pH 7.5) and the mixture was homogenized using a Polytron homogenizer. The homogenate was centrifuged at 400×g for 15 minutes and the supernatant was taken in an ultracentrifuge tube and recentrifuged at 100,000×g for 1 hour. The membrane fraction thus obtained as a pellet was suspended in 2 ml of assay buffer and centrifuged at 100,000×g for 1 hour. The membrane fraction recovered was resuspended in 20 ml of assay buffer and the suspension was portioned, stored at -80° C., and thawed when needed.
(C) Determination of the ^125 I-leuprolerin binding inhibition rate
The membrane fraction prepared in Step (B) was diluted with assay buffer to 200 μg/ml and the dilution was portioned into tubes, 188 μl per tube. Then, 2 μl of 2 mM solution of the test compound in 60% DMSO and 10 μl of 38 nM ^125 I-leuprolerin solution in the same solvent were simultaneously added to the tubes. To determine the maximum binding, a test mixture of 2 μl of 60% DMSO and 10 μl of 38 nM ^125 I-leuprolerin solution in the same solvent was prepared. For the determination of nonspecific binding, a test mixture of 2 μl of 100 μM leuprolerin solution in 60% DMSO and 10 μl of 38 nM solution of ^125 I-leuprolerin in the same solvent was also prepared. The mixtures were respectively allowed to react at 25° C. for 60 minutes and the reaction product in each tube was filtered through a poly(ethylene imine)-treated Whatman glass filter (GF-F) under suction. The radioactivity of ^125 I-leuprolerin remaining on the filter was determined using a γ-counter.
Using the measured values, the following equation was calculated to find the binding inhibition rate for each test compound.
Binding inhibition (%)=(TB-SB)/(TB-NSB)×100
[SB: radioactivity with the compound added
TB: maximum bound radioactivity
NBS: nonspecifically bound radioactivity]
Using a concentration series of each test compound, the concentration of the compound which inhibited the binding by 50% (IC50) was calculated by Hill plot.

[1] = repeated administration, receptor down-regulation; cited from earlier work
GnRH = details: relative to native GnRH; cited from earlier work

With `O=C(Nc1ccc(CN2C(=O)[C@H]3CCC[C@H]3N(C(=O)CN3C(=O)c4ccccc4C3=O)c3ccccc32)cc1)c1ccc(Cl)cc1` (relative stereo) [Example 11, (3aR*,10aS*)-9-[4-(4-Chlorobenzamido)benzyl]-4-(phthalimidoacetyl)-2,3,3a,4,9,10a-hexahydrobenzo[b]cyclopenta[e][1,4]diazepin-10(1H)-one] the IC50 (Human GnRH receptor) was 200 nM.

Compound `O=C(NCc1ccncc1)Nc1ccc(CN2C(=O)[C@H]3CCC[C@H]3N(C(=O)CN3C(=O)c4ccccc4C3=O)c3ccccc32)cc1` (relative stereo) [Example 34, (3aR*,10aS*)-4-(Phthalimidoacetyl)-9-[4-[3-(4-pyridylmethyl)ureido]benzyl]-2,3,3a,4,9,10a-hexahydrobenzo[b]cyclopenta[e][1,4]diazepin-l0(1H)-one hydrochloride] has an IC50 (Human GnRH receptor) of 80 nM.

For Leuprolerin acetate, the production of testosterone [1] is given as “cut down on the production of testosterone to the castrated level” and the “times as active as native GnRH” value (GnRH) is given as 20-50 times.

Compound `COc1ccc(CNC(=O)Nc2ccc(CN3C(=O)[C@H]4CCC[C@H]4N(C(=O)CN4C(=O)c5ccccc5C4=O)c4ccccc43)cc2)cc1` (relative stereo) [Example 32, (3aR*,10aS*)-9-[4-[3-(4-Methoxybenzyl)ureido]-benzyl]-4-(phthalimidoacetyl)-2,3,3a,4,9,10a-hexahydro-benzo[b]cyclopenta[e][1,4]diazepin-10(1H)-one] has an IC50 (Human GnRH receptor) of 40 nM.

Compound `O=C(NCCc1ccccc1)Nc1ccc(CN2C(=O)[C@H]3CCC[C@H]3N(C(=O)CN3C(=O)c4ccccc4C3=O)c3ccccc32)cc1` (relative stereo) [Example 30, (3aR*,10aS*)-9-[4-[3-(2-Phenylethyl)ureido]benzyl]-4-(phthalimidoacetyl)-2,3,3a,4,9,10a-hexahydrobenzo[b]-cyclopenta[e][1,4]diazepin-10(1H)-one] has an IC50 (Human GnRH receptor) of 40 nM.

`O=C(Nc1ccc(CN2C(=O)[C@H]3CCC[C@H]3N(C(=O)CN3C(=O)c4ccccc4C3=O)c3ccccc32)cc1)c1ccccc1` (relative stereo) [Example 7, (3aR*,10aS*)-9-(4-Benzamidobenzyl)-4-(phthalimidoacetyl)-2,3,3a,4,9,10a-hexahydrobenzo[b]cyclopenta[e]-[1,4]diazepin-10(1H)-one] showed an IC50 (Human GnRH receptor) of 200 nM.

Reference: US5866567A, “Diazepinones, their production and use” (Takeda Chemical Industries, Ltd., priority 1995, dated 1999)
